Test results from patent publication US10377772B2, “Macrocyclic LRRK2 kinase inhibitors” (Oncodesign S.A., priority 2014, dated 2019).
pIC50: −log10 of the molar value.

Molecular target: LRRK2 recombinant protein (Homo sapiens (Human), UniProt Q5S007)
Assay: radiometric protein kinase assay (33PanQinase Activity Assay) for LRRK2
Format: biochemical
Settings: ATP 0.3 μM, LRRK2 7.3 nM, substrate GSK3(14-27), 30° C. for 60 minutes
Method: The inhibition of LRRK2 kinase was assessed using LRRK2 recombinant protein in an in vitro peptide-based kinase assay.
A radiometric protein kinase assay (^33PanQinase® Activity Assay) is used for measuring the kinase activity. All assays are performed in 96-well FlashPlates™ from Perkin Elmer in a 50 μl reaction volume. The reaction cocktail is pipetted in 4 steps in the following order: • 10 μl of non-radioactive ATP solution (in H2O) • 25 μl of assay buffer/[γ-^33P]-ATP mixture • 5 μl of test sample in 10% DMSO • 10 μl of enzyme/substrate mixture
The assay for LRRK2 contains 70 mM HEPES-NaOH pH 7.5, 3 mM MgCl2, 3 mM MnCl2, 3 μM Na-orthovanadate, 1.2 mM DTT, 50 μg/ml PEG20000, ATP (0.3 μM), [γ-^33P]-ATP (approx. […] per well), protein kinase LRRK2 (7.3 nM) and substrate (GSK3(14-27), 1.0 μg/50 μl).
The kinase is obtained from Invitrogen Corporation.
The reaction cocktails were incubated at 30° C. for 60 minutes. The reaction was stopped with 50 μl of 2% (v/v) H3PO4, plates were aspirated and washed two times with 200 μl 0.9% (w/v) NaCl. Incorporation of ^33Pi (counting of “cpm”) was determined with a microplate scintillation counter.
The compounds are dissolved to 10 mM in DMSO. Where needed, solutions are sonicated in a bath sonicator.
Table 2 provides the pIC50 values of the compounds according to the invention, obtained using the above mentioned kinase assay.

LRRK2 recombinant protein, sequence (Q5S007 whole entry): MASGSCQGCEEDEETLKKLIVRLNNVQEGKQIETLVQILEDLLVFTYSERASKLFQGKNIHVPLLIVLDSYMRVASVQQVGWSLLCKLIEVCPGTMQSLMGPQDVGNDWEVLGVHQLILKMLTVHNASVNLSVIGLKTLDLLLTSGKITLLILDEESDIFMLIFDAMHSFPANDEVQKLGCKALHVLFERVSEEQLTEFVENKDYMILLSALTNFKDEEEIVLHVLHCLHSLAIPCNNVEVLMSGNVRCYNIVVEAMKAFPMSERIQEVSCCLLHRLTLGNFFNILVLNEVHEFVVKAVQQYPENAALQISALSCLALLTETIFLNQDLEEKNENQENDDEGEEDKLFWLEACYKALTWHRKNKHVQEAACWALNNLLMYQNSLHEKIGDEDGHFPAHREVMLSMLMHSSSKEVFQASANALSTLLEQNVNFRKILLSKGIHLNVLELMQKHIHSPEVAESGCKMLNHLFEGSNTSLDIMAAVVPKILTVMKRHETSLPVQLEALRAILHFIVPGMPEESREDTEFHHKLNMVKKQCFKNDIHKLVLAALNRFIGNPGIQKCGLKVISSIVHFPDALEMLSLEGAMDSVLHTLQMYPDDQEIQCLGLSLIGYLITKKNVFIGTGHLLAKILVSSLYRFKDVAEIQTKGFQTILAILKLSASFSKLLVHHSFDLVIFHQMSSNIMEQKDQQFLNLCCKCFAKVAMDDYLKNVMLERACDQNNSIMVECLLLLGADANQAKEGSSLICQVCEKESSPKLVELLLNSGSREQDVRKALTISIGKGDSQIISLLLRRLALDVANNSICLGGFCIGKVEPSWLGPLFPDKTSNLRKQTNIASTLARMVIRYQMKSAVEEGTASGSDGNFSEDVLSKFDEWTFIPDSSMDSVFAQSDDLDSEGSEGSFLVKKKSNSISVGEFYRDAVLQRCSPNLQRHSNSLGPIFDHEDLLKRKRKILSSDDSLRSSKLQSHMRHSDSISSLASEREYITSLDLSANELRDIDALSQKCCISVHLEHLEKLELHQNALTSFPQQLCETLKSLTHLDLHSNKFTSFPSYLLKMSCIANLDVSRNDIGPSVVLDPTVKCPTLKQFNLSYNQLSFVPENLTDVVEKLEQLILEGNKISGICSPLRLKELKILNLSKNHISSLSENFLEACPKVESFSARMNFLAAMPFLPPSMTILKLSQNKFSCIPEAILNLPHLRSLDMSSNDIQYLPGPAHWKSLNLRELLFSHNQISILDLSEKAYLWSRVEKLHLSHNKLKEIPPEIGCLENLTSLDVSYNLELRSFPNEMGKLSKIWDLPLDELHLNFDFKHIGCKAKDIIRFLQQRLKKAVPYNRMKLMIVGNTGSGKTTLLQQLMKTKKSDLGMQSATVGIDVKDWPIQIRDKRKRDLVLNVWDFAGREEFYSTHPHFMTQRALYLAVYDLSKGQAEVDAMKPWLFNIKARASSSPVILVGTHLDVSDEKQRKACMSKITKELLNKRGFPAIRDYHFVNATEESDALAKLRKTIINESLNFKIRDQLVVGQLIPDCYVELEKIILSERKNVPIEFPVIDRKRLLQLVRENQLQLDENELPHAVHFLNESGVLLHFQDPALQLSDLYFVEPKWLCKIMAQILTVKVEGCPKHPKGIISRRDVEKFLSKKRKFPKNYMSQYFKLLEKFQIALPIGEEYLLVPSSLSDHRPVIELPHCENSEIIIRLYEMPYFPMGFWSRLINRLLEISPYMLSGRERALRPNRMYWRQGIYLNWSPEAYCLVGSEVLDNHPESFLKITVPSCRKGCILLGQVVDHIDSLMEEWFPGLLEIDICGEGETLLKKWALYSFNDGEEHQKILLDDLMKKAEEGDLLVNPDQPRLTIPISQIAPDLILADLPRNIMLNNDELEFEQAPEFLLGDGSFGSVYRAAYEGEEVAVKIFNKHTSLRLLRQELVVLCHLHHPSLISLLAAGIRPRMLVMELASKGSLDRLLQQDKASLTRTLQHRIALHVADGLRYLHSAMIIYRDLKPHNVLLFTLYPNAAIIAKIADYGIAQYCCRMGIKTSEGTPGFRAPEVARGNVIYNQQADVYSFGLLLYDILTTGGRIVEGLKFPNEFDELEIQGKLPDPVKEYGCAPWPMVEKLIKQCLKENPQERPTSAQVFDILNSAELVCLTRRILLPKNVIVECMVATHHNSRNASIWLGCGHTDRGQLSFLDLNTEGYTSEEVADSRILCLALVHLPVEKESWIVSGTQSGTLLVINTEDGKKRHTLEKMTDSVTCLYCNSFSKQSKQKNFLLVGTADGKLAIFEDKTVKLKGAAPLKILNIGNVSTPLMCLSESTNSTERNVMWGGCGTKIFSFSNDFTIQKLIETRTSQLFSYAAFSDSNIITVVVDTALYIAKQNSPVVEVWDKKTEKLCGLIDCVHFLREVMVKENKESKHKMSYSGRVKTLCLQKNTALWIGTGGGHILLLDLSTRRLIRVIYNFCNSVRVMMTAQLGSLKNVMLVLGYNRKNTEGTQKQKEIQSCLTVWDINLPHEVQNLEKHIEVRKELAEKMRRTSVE

| Structure (SMILES) | pIC50 |
| --- | --- |
| C[C@@H]1CN2CCNc3ccn4ncc(c4n3)-c3cc(ccc3F)OC[C@@H]2CN1CC1CC1 [Example N49] | > 7.00 |
| Cc1cc(F)c2cc1NC[C@@H]1CCCN1CCNc1ccn3ncc-2c3n1 [Example N10] | > 7.00 |
| Fc1ccc2cc1-c1cnn3ccc(nc13)NCCN1CCNC[C@H]1CO2 [Example N20] | > 7.00 |
| Fc1ccc2cc1-c1cnn3ccc(nc13)NCCN1C[C@@H](CN3CCC[C@H]3C1)O2 [Example N43] | > 7.00 |
| C[C@@H]1CN2CCNc3ccn4ncc(c4n3)-c3cc(ccc3F)OC[C@@H]2CN1C [Example N46] | > 7.00 |
| Fc1ccc2cc1-c1cnn3ccc(nc13)NCCCN1CCC[C@H]1CO2 [Example N14] | > 7.00 |
| Fc1ccc2cc1-c1cnn3ccc(nc13)NCCN1CCC(CC1)O2 [Example N33] | > 7.00 |
| Fc1ccc2cc1-c1cnn3ccc(nc13)NCCN1CCC[C@H]1CN2 [Example N2] | > 7.00 |
| CN1CCN2CCOC[C@H]2COc2ccc(F)c(c2)-c2cnn3ccc1nc23 [Example N25] | > 7.00 |
| CCN1C[C@H]2COc3ccc(F)c(c3)-c3cnn4ccc(nc34)NCCN2C[C@H]1C [Example N50] | > 7.00 |
| c1cc2cc(c1)-c1cnn3ccc(nc13)NCCN1CCC[C@H]1CO2 [Example N1] | > 7.00 |
| Fc1ccc2cc1-c1cnn3ccc(nc13)CCCN1CCC[C@H]1CO2 [Example N37] | > 7.00 |
| Fc1ccc2cc1-c1cnn3ccc(nc13)NC1CCN(CCCN2)C1 (stereo not drawn) [Example N6] | > 7.00 |
| Fc1ccc2cc1-c1cnc3ccc(nn13)NCCN1CCCC[C@H](C1)O2 [Example N59] | > 7.00 |
| CN1CCN2CCCC[C@H]2COc2ccc(F)c(c2)-c2cnn3ccc1nc23 [Example N19] | > 7.00 |
| Fc1ccc2cc1-c1cnn3ccc(nc13)NCCN1C[C@H]3CCCN3C[C@@H]1CO2 [Example N30] | > 7.00 |
| C[C@H]1CN2CCNc3ccn4ncc(c4n3)-c3cc(ccc3F)OC[C@@H]2CN1 [Example N53] | > 7.00 |
| CN1c2ccn3ncc(c3n2)-c2cc(ccc2F)OCCN2CC[C@@H]1C2 [Example N61] | > 7.00 |
| CN1CCN2C[C@@H]3CCCN3C[C@H]2COc2ccc(F)c(c2)-c2cnn3ccc1nc23 [Example N42] | > 7.00 |
| Fc1ccc2cc1-c1cnn3ccc(nc13)NCCN1CCNC[C@@H]1CO2 [Example N35] | > 7.00 |
| CN1CCN2CCC[C@H]2CNc2ccc(F)c(c2)-c2cnn3ccc1nc23 [Example N16] | > 7.00 |

| Structure (SMILES) | pIC50 |
| --- | --- |
| CC1(C)CN2CCNc3ccn4ncc(c4n3)-c3cc(ccc3F)OC[C@@H]2CN1C1CC1 [Example N62] | > 7.00 |
| CN1CCN2CCNc3ccn4ncc(c4n3)-c3cc(ccc3F)OC[C@H]2C1 [Example N36] | > 7.00 |
| Fc1ccc2cc1-c1cnn3ccc(nc13)OC1CCN(CCN2)CC1 [Example N9] | 6.00 to 7.00 |
| Fc1ccc2cc1-c1cnn3ccc(nc13)NCCN1CCCC[C@H](C1)O2 [Example N18] | > 7.00 |
| Fc1ccc2cc1-c1cnn3ccc(nc13)NCCC1CCCN1CCN2 (stereo not drawn) [Example N5] | > 7.00 |
| Fc1ccc2cc1-c1cnn3ccc(nc13)NCCN1CCC[C@H]1CO2 [Example N8] | > 7.00 |
| Fc1ccc2cc1-c1cnn3ccc(nc13)OCCN1CCC[C@H]1CN2 [Example N21] | > 7.00 |
| Fc1ccc2cc1-c1cnn3ccc(nc13)NCCN1C[C@@H](F)C[C@H]1CO2 [Example N39] | 6.00 to 7.00 |
| C[C@@H]1CN2CCNc3ccn4ncc(c4n3)-c3cc(ccc3F)OC[C@@H]2CN1 [Example N45] | > 7.00 |
| CN1CCN2CCC[C@H]2COc2ccc(F)c(c2)-c2cnn3ccc1nc23 [Example N11] | > 7.00 |
| Fc1ccc2cc1-c1cnn3ccc(nc13)NCCN1CCNC[C@H](C1)O2 [Example N28] | > 7.00 |
| CN1CCN2CCNc3ccn4ncc(c4n3)-c3cc(ccc3F)OC[C@@H]2C1 [Example N23] | > 7.00 |
| Fc1ccc2cc1-c1cnn3ccc(nc13)NCCN1CCC=C[C@H]1CO2 [Example N41] | > 7.00 |
| C[C@H]1C[C@@H]2CCN1CCNc1ccn3ncc(c3n1)-c1cc(ccc1F)O2 [Example N40] | > 7.00 |
| Fc1ccc2cc1-c1cnn3ccc(nc13)NC1CCN(CCN2)CC1 [Example N3] | > 7.00 |
| CC1(C)CN2CCNc3ccn4ncc(c4n3)-c3cc(ccc3F)OC[C@@H]2CN1 [Example N55] | > 7.00 |
| Fc1ccc2cc1-c1cnn3ccc(nc13)NCCN1C[C@H](F)C[C@H]1CO2 [Example N12] | > 7.00 |
| CC(C)[C@H]1CN2CCNc3ccn4ncc(c4n3)-c3cc(ccc3F)O[C@H](CN1)C2 [Example N51] | > 7.00 |
| CCCN1C[C@H]2COc3ccc(F)c(c3)-c3cnn4ccc(nc34)NCCN2C[C@H]1C [Example N48] | > 7.00 |
| Fc1ccc2cc1-c1cnc3ccc(nn13)NCCN1CCC[C@H]1CO2 [Example N52] | > 7.00 |
| CN1CCN2CCC(CC2)Oc2ccc(F)c(c2)-c2cnn3ccc1nc23 [Example N34] | > 7.00 |

| Structure (SMILES) | pIC50 |
| --- | --- |
| Fc1ccc2cc1-c1cnn3ccc(nc13)OCCCN1CCC[C@H]1CN2 [Example N13] | 6.00 to 7.00 |
| CC(C)[C@H]1CN2CCN(C)c3ccn4ncc(c4n3)-c3cc(ccc3F)OC[C@@H]2CN1 [Example N56] | 6.00 to 7.00 |
| CN1c2ccn3ncc(c3n2)-c2cc(ccc2F)OCCN2CCC1CC2 [Example N15] | > 7.00 |
| Fc1ccc2cc1-c1cnn3ccc(nc13)NCCN1CCCC[C@H]1CO2 [Example N17] | > 7.00 |
| Fc1ccc2cc1-c1cnn3ccc(nc13)N[C@@H]1CCN(CCO2)C1 [Example N60] | > 7.00 |
| C[C@H]1CN2CCNc3ccn4ncc(c4n3)-c3cc(ccc3F)O[C@H](CN1)C2 [Example N54] | > 7.00 |
| CN1CCN2C[C@H]3CCCN3C[C@H]2COc2ccc(F)c(c2)-c2cnn3ccc1nc23 [Example N29] | > 7.00 |
| CC(=O)N1CCN2CCNc3ccn4ncc(c4n3)-c3cc(ccc3F)OC[C@@H]2C1 [Example N32] | > 7.00 |
| Fc1ccc2cc1-c1cnn3ccc(nc13)NCCN1C[C@@H]3CCCN3C[C@H]1CO2 [Example N38] | > 7.00 |
| Fc1ccc2cc1-c1cnn3ccc(nc13)OCCN1CCC(CC1)N2 [Example N7] | > 7.00 |
| Fc1ccc2cc1-c1cnn3ccc(nc13)NCCN1CCC(CC1)N2 [Example N4] | > 7.00 |
| CN1CCN2C[C@@H](CN3CCC[C@H]3C2)Oc2ccc(F)c(c2)-c2cnn3ccc1nc23 [Example N44] | > 7.00 |
| Fc1ccc2cc1-c1cnn3ccc(nc13)NCCN1C[C@H]3CCCN3C[C@H]1CO2 [Example N27] | > 7.00 |
| Fc1ccc2cc1-c1cnn3ccc(nc13)N[C@H]1CCCN(CCO2)C1 [Example N57] | > 7.00 |
| C=CCN1C[C@H]2COc3ccc(F)c(c3)-c3cnn4ccc(nc34)NCCN2CC1(C)C [Example N63] | > 7.00 |
| Fc1cc(Cl)c2cc1-c1cnn3ccc(nc13)NCCN1CCC[C@H]1CO2 [Example N26] | > 7.00 |
| Fc1ccc2cc1-c1cnn3ccc(nc13)NCCN1CCOC[C@H]1CO2 [Example N22] | > 7.00 |
| C[C@@H]1CN2CCNc3ccn4ncc(c4n3)-c3cc(ccc3F)OC[C@@H]2CN1C1CC1 [Example N47] | > 7.00 |
| CN1CCN2CCN(C)c3ccn4ncc(c4n3)-c3cc(ccc3F)OC[C@@H]2C1 [Example N24] | > 7.00 |
| CC1(C)CN2CCNc3ccn4ncc(c4n3)-c3cc(ccc3F)O[C@H](CN1)C2 [Example N58] | > 7.00 |
| CN1CCN2C[C@H](CN3CCC[C@H]3C2)Oc2ccc(F)c(c2)-c2cnn3ccc1nc23 [Example N31] | > 7.00 |
